Measurements as given in patent publication US8889140B2, “Compositions and methods for tissue repair” (TransTarget, Inc., priority 2007, dated 2014).
“Also recorded” adds a separate entry of the source. Where no end group is shown, it is not given here.

Columns and labels:
Type in all cases: cell-based, human
[1] = tested on: HUVEC cells; assay: Cell attachment assay (MTS) on coated wells; conditions: substrate coated at 20, 50, 100 μg/ml (fibronectin 10 and 100 μg/ml), 30 minute incubation, vs BSA 2 mg/ml
Method: Immulon 1B, untreated 96-well plates (CoStar), and untreated 35 mm dishes (CoStar) were purchased from Fisher Scientific (Pittsburg, Pa.). Human umbilical vein endothelial cells (HUVECs), cell culture media and supplements were purchased from Lonza (Basel, Switzerland). EMD peptides as shown in SEQ ID Nos: 1-4, were synthesized by Commonwealth Biotechnologies Inc., (Richmond, Va.). Amino acid analysis was performed on the peptides to verify the amino acid sequence.
For the adhesion studies 96-well Immulon 1B plates were used. Various concentrations of the EMD peptides (SEQ ID Nos: 1-4) were tested for their ability to bind cells, and compared to the full-length protein, from which the EMD peptides were derived as positive controls. Bovine Serum Albumin (BSA) treated wells were used as a negative control. Full-length collagen IV, and the EMD peptides Hep I, Hep III, FCHV, and RGD were tested at concentrations of 20 μg/ml, 50 μg/ml, and 100 μg/ml. Full length fibronectin was tested at concentrations of 10 μg/ml and 100 μg/ml. Negative control wells were coated with BSA at a concentration of 2 mg/ml. Fifty μL of protein or EMD peptide solutions at the various concentrations was added separate wells and incubated at 37° C. for at least 18 hours. The protein or peptide solution was then removed and the wells were blocked for 2 hours at 37° C. with 2 mg/mL BSA solution. Following the blocking procedure, wells were washed twice with PBS. HUVEC cells (Lonza, Basel Switzerland) were then added to the wells at a concentration of 5×10^3 to 1×10^4 cells per well. Following a thirty-minute incubation, […] wells were washed and cell adhesion was determined using an MTS (3-(4,5-dimethylthiazol-2-yl)-5-(3-carboxymethoxyphenyl)-2-(4-sulfophenyl)-2H-tetrazolium, inner salt) tetrazolium/formazan assay (Promega, Madison, Wis.) according to the manufacturer's instructions.

[2] = tested on: HUVEC cells; assay: Cell proliferation assay (MTS) on coated wells; conditions: substrate coated at 20, 50, 100 μg/ml (fibronectin 10 and 100 μg/ml), 1-4 days, vs BSA 2 mg/ml, p<0.05
Method: To determine if EMD peptides can activate cells by stimulating cellular proliferation, 96-well plates coated using the same protocol as described above for the cell attachment assay was used. Following treatment of the wells, HUVEC cells (Lonza, Basel Switzerland) were then added to the wells at a concentration of 5×10^3 to 1×10^4 cells per well and incubated under standard culture conditions for 1, 2, 3 or 4 days. Cell proliferation was then determined at the end of the incubation period using an MTS tetrazolium/formazan assay (Promega, Madison, Wis.) according to the manufacturer's instructions.

[3] = tested on: HUVEC cells; assay: Haptotactic cell migration assay, modified Boyden chamber; conditions: 6 hours; for haptotactic migration compared to untreated membranes: membrane coated at 500 ng/ml to 300 μg/ml, normalized to uncoated control
Method: In order to test the ability of EMD peptides to recruit cells haptotactic migration assays with Hep I (SEQ ID NO:1), Hep ITT (SEQ TD NO:2), FC/HV (SEQ ID NO:3), RGD (SEQ ID NO:4), FN, and Col IV were conducted using a modified Boyden chamber. Haptotactic migration was performed in triplicate and was assessed using a modified Boyden chamber (Corning, CoStar, Acton, Mass.). The assay was carried out as follows: the lower chamber was first blocked with 10% BSA for at least 30 minutes at 37° C. followed by 3 washings with PBS. The lower surface of the membrane on the upper chamber was coated with approximately 10 μL of protein or EMD peptide solution having a concentration between 500 ng/mL-300 μg/mL and allowed to incubate for 15-30 minutes at 37° C. and then allowed to air dry at room temperature under aseptic conditions. At least one assay was performed for each concentration. Basal cell media supplemented with 0.5% BSA was then added to the lower chamber and 100 μL of H U V ECs (1×10^4 to 2×10^4 cells) in the same cell media was added to the upper chamber. The chambers were then incubated at 37° C., 5.0% CO2 for 6 hours. Upon completion of the incubation period, the cells on the membrane of the upper chamber were fixed with 4% paraformaldehyde followed by removal of the cells on the upper side of the membrane with a Q-tip. Next, the membrane was carefully removed from the chamber, dipped in a 1:4000 dilution of Hoechst 33342 (Invitrogen, Carlsbad, Calif.) and placed on a glass slide. Using a fluorescent microscope (Nikon Eclipse E800) at 10× magnification, five random fields of view were photographed on each membrane for determination of the area cell density.
In order to allow for direct comparison, the area cell density of migrated cells was normalized to the area cell density of migrated cells on the uncoated (0 μg/mL) control membrane. See, FIG. 3.

Substance	cell attachment compared to BSA control ([1]; p<0.05)	cell proliferation (cell activation) compared to BSA control [2]	concentrations showing statistically significant migration ([3]; coated membrane, vs uncoated control membrane)	haptotactic migration compared to untreated membranes ([3]; p<0.05)	cell attachment compared to BSA control ([1]; p<0.05, listed as Fibronectin)	haptotactic migration compared to untreated membranes ([3]; p<0.05, listed as FC/HV)
TAGSCLRKFSTMY-OH [Hep I]	not statistically different from that of the BSA treated wells; also recorded: not significantly different from that of the BSA control	increased cellular proliferation; also recorded: significantly better at promoting cell proliferation	greater than 1 μg/ml	promoted haptotactic migration	–	–
GEFYFDLRLKGDKY-OH [Hep III]	increased cell attachment; also recorded: significantly better at promoting cell attachment	increased cellular proliferation; also recorded: significantly better at promoting cell proliferation	–	significant migration compared to control; also recorded: promoted haptotactic migration	–	–
fibronectin: Full length fibronectin, positive control [reference compound]	significantly better at promoting cell attachment	increased cellular proliferation; also recorded: significantly better at stimulating cellular proliferation	–	promoted haptotactic migration	increased cell attachment	–
GRGDSPASSPISC-OH	increased cell attachment; also recorded: significantly better at promoting cell attachment	increased cellular proliferation; also recorded: significantly better at stimulating cellular proliferation	–	significant migration compared to control; also recorded: promoted haptotactic migration	–	–
WQPPRARI-OH [FCHV]	not statistically different from that of the BSA treated wells; also recorded: not significantly different from that of the BSA control	not different from that of cells cultured in wells coated with BSA; also recorded: not statistically different as compared to the BSA control	–	did not promote haptotactic migration	–	did not show statistically significant migration at any of the concentrations tested
